How the values were obtained:
rats [1] = assay: Vogel test; assay type: in vivo; settings: i.c.v., b-CD, 10 ug
Source text: The Vogel test is based on the development of a conflict between a highly motivated behavior and an aversion. For this test, the strong motivation is thirst. The animal is water deprived for 12-16 hrs to produce the motivation to drink. During the training period the animals are exposed to the testing environment so they become accustomed to the drinking spout and minimize the fear of a novel environment. Following training, the animals are allowed access to water for 2 hrs. During this time, the animals will drink and eat their normal amount of water and food, compensating for the deprivation time. However, this schedule still produces a strong motivation to drink during the testing period.
Having been deprived of water for twelve to sixteen hours, an animal is placed in a test cage where it is allowed to drink freely for five minutes. This period is used to habituate the animal to the environment and the drinking spout Following the training period, animals have access to water and food in their home cage for 2 hrs. Food is available at all times. Twenty-four hours later, drug is administered to the animal intracerebroventricularly.
After an indicated delay started from the time of injection the animal is again placed in the test cage for ten minutes. A computer counts each time the animal licks, and after every twentieth lick administers a mild electric stimulus across the tongue and/or feet. The electrical stimulus consists of a 0.6 mA current with a duration of 100 msec. This procedure produces a state of conflict for the animal that is reduced by the administration of clinically used anxiolytic agents (i.e., Valium). For dose-response curves, separate groups of animals are injected with increasing doses of test drug and are tested at a predetermined time.

mice = assay: light/dark transition test; assay type: in vivo, N.I.H. Swiss-Webster mice; settings: IP
Source text: The light/dark transition test (Crawley and Goodwin, Pharmacol. Biochem. Behav. 13:67-70 1980) is based on the observation that rodents naturally tend to explore novel environments, but open, brightly lit arenas are aversive to the rodents and inhibit exploratory behavior (Christmas and Maxwell, Neuropharmacol. 9:17-29 1970; File, J. Neurosci. Meth. 2:219-238 1980).
Male N.I.H. Swiss-Webster mice (Harlan, Harlan, Indianapolis, IN) weighing 15-20 g were housed four per cage in polyethylene cages with sawdust bedding. The colony room was environmentally controlled (22°C) with a 12 hr light/dark cycle (0600-1800 hr). Food and water were available ad libitum, except during testing. The experiments were run from 0700-1500 hr and groups were counterbalanced for time of day effects. Mice were only administered drug or vehicle once.
The method used was a modification of methods previously described (Wieland et al., Br. Res. 565:263-268 (1991)). The apparatus included two 2-compartment automated test chambers (Model RXYZCM16, Omnitech Electronics, Columbus, OH). The open compartment was connected to the enclosed compartment via a 7.5 x 7.5 cm passageway. The open compartment was brightly lit using a 200 W incandescent light bulb. The experimental room was kept dark. Interruptions of the infrared beams in either chamber were automatically recorded by being linked to a computer through a Digiscan Analyzer (Omnitech Electronics) and the data was analyzed using the Integrated Lab Animal Monitoring System (Omnitech Electronics).
N.I.H. Swiss-Webster mice were administered vehicle or test drug intraperitoneally (IP), 10 min later they were placed in the center of the lit compartment. The number of transitions between the lit and dark chambers, total activity in the lit chamber and the time spent in the lit chamber were measured during a 10 min test period.

rats [2] = assay: Geller-Seifter conflict test; assay type: in vivo, Sprague-Dawley rats
Summary of the method: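 Food-restricted (85% free-feeding weight) male Sprague-Dawley rats, 250-300 g, trained 4-6 weeks to lever-press for milk under a 63-min schedule: VI 2-min unpunished periods alternating with four 3-min signalled conflict periods where each press gave milk plus foot-shock. Increased punished responding indexed antianxiety activity; decreased unpunished responding indexed sedation.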

[3] = conflict test, subcutaneous administration

Structure (SMILES): CC(=O)[C@H]1CC[C@H]2[C@@H]3CC[C@H]4C[C@H](O)CC[C@]4(C)[C@H]3CC[C@]12C [3α-hydroxy-5α-pregnan-20-one, reference compound]
- Vogel (% of control) (rats [1]): 431.1 % of control
- activity (mice; 10 & 20 mg/kg, compared to control groups): significant (p < 0.01) increases
- number of transitions between the dark box and the light box (mice; at doses tested, versus control (Dunnett's t-test)): significantly increased
- dose at which the peak effect was observed (rats [2]; [3]): 4.4 mg/kg
- rate of punished responses (rats [2]; [3]): large increases
- Geller/Seifter (% of control) (rats [2]; sc, 50% hpbcd, 5 mg/kg): 471.8 % of control
